Measured values published in PMC7534258, “Novel temporin L antimicrobial peptides: promoting self-assembling by lipidic tags to tackle superbugs” (Journal of Enzyme Inhibition and Medicinal Chemistry, 2020).
≈ marks a conversion by molar mass, not a printed value. Where a SMILES comes first, the peptide text is derived from it. [ ]: non-standard residue; d: D form. The star is where a group is joined. Heptanoyl = CCCCCCC(=O)*; Pentanoyl = CCCCC(=O)*

Assays:
P. aeruginosa ATCC 27853 = test: Broth microdilution MIC, reference strain; assay type: cell-based, Pseudomonas aeruginosa; conditions: for MIC: Pseudomonas aeruginosa, ATCC27853, antibiotics, 16–18 h at 37 °C, read-out: Antimicrobial activity (MIC) P. aeruginosa ATCC 27853
Method: (§1) Staphylococcus aureus ATCC 25923, Pseudomonas aeruginosa ATCC 27853 and Klebsiella pneumoniae ATCC BAA-1705 (carbapenemase producer) were obtained from the American Type Culture Collection (Rockville, MD).
(§2) Identification was performed by sub-culturing on Tryptic Soy Agar (TSA, Becton Dickinson) and by biochemical characterisation using the Vitek II system (Biomerieux). The antimicrobial susceptibility testing of all isolates was determined using Vitek II system and results were interpreted according to European Committee on Antimicrobial Susceptibility Testing (EUCAST version 9.0, 2019). P. aeruginosa was cultured in Brain Heart Infusion broth (BHI, OXOID), S. aureus and K. pneumoniae were cultured in Tryptic Soya broth (TSB, OXOID), under aerobic conditions at 37 °C, for 24 h on an orbital shaker at 200 rpm.
(§3) Minimal inhibitory concentrations (MIC) of all the peptides were determined in Mueller–Hinton medium by the broth microdilution assay, following the procedure already described[22]^,[34]. The compounds were added to bacterial suspension in each well yielding a final cell concentration of 1 × 10^6 CFU/ml and a final compound concentration ranging from 0.78 to 100 µM. Negative control wells were set to contain bacteria in Mueller–Hinton broth plus the amount of vehicle (ethanol) used to dilute each compound. Positive controls included vancomycin (2 µg/ml), tobramycin (4 µg/ml), gentamycin (4 µg/ml), and imipenem (8 µg/ml).

[1] = system: K. pneumoniae ATCC BAA-1705; test: Broth microdilution MIC, reference strain; assay type: cell-based, Klebsiella pneumoniae; conditions: for MIC: Klebsiella pneumoniae, ATCCBAA1705, antibiotics, 16–18 h at 37 °C, read-out: Antimicrobial activity (MIC) K. pneumoniae ATCC BAA-1705
Method: as §1, §2, §3

S. aureus ATCC 25923 = test: microbe, parasite or virus in culture; conditions: for MIC: Staphylococcus aureus, ATCC25923, read-out: Antimicrobial activity (MIC) S. aureus ATCC 25923
Method: as §1, §2, §3

[2] = Critical aggregation concentration, Nile red fluorescence; assay type: physicochemical; conditions: aqueous solution, pH 7, Nile red, 1–200 µM peptide
Method: The solvatochromic fluorescent probe Nile red is widely used to determine the CAC of self-assembling peptides. […] Since Nile red is poorly soluble in water, there is a large preference to partition aggregates, which offer hydrophobic binding sites. Initially, 1 mM methanolic Nile red was prepared. Then, the methanolic Nile red was diluted with water in order to have a final concentration of 500 nM (solution A). The peptides 1B, 2B, 3B, C, were prepared as follows[39]: peptide stock solutions (0.4 mM) were prepared by dissolving the single peptides in water (1B, C) or tetrahydrofuran (3B, 2B) and sonicating for 15 min. Different aliquots were taken to prepare solutions of each peptide at different concentrations (1, 5, 10, 15, 20, 30, 50, 100 and 200 µM). Then, all solutions were diluted with water, sonicated for 15 min and freeze-dried. Finally, the peptide powders were dissolved with the right volume of solution A and allowed to stand in the dark place for 1 h before measurement. Emission spectra for each solution were measured by a Cary Eclipse Varian spectrometer. Spectra were taken between 570 and 700 nm at a slit width of 5 nm, using an excitation wavelength of 550 nm and a 10 nm slit width. The measurements were performed in triplicate. The data were analysed by plotting the maximum emission fluorescence corresponding wavelength (y) as a function of peptide concentration (x) and fitting with the sigmoidal Boltzmann equation: y=A1+A2/1+e^(x−x0/Δx)+A2 where the variables A1 and A2 correspond to the upper and lower limits of the sigmoid, x0 is the inflection point of the sigmoid and Δx is the parameter, which characterises the steepness of the function. The sigmoidal plot allows calculating the CAC value at x0.

ANTS/DPX leakage assay = conditions: ANTS/DPX-loaded LUVs, Gram-positive and Gram-negative mimicking
Method: Large unilamellar vesicles (LUVs) and small unilamellar vesicles (SUVs) consisting of DOPG/CL (58/42 ratio in moles) and DOPG/DOPE/CL (63/23/12 ratio in moles), mimic the Gram-positive membrane and Gram-negative membrane, respectively. LUVs were prepared using the extrusion method as previously described. In particular, first lipid films were prepared by dissolving an appropriate amount of lipids in chloroform and fluorescent probes were added when necessary, then dried under a nitrogen gas stream and freeze-dried overnight. In all experiments, we used a final lipid concentration of 0.1 mM. For fluorescence experiments, buffer was added to dry lipid films and vortexed for 1 h; then the lipid suspension was freeze-thawed 6 times and extruded 10 times through polycarbonate membranes with 0.1 µm diameter pores to obtain LUVs. For circular dichroism measurements, peptide samples in SUVs were prepared as reported in the following protocol. Lipids were dissolved in chloroform and added to an equal volume of peptide solution dissolved in TFE containing appropriate peptide concentration. The samples were vortexed and lyophilised overnight. The dry samples were rehydrated with phosphate buffer 5 mM, pH 7.4 for 1 h and sonicated for 30 min.
The ANTS/DPX leakage assay was used to measure the ability of peptide to permeabilise and induce leakage of encapsulated dyes. After lipid films were prepared as previously described, ANTS (12.5 mM) and DPX (45 mM) were dissolved in 2 ml water, were added to lipid films and then lyophilised overnight. The lipid films with encapsulated ANTS and DPX were hydrated with PBS 1X buffer, vortexed for 1 h and then treated to obtain LUVs. The non-encapsulated ANTS and DPX were removed by gel filtration using a Sephadex G-50 column (1.5 cm × 10 cm) at room temperature. To start up the leakage experiment, a 2 mM peptide stock solution was prepared and LUVs were titrated with the peptide. Samples were excited at 385 nm (slit width, 5 nm) and fluorescence emission was recorded at 512 nm (slit width, 5 nm). After the addition of peptide, we evaluated leakage of encapsulated ANTS through a change in fluorescence spectra of ANTS and DPX. In particular, leakage is associated to an increase in ANTS fluorescence at 512 nm. Complete release of ANTS was obtained by using 0.1% Triton X, which caused the total destruction of liposomes. The percentage of leakage was calculated as % leakage =(Fi−F0)/(Ft−F0), where F0 represents the fluorescence of intact LUVs before the addition of peptide, and Fi and Ft denote the intensities of the fluorescence achieved after peptide and Triton-X treatment, respectively.

sheep red blood cells = assay type: cell-based; conditions: red cells of sheep, 24 h
Method: Sheep red blood cells were purchased from OXOID, SR0051D.
The haemolytic assay was conducted following the procedure described. […] Controls were erythrocytes treated with vehicle (water).

HaCaT cells = conditions: 24 h, at 6.25 µM
Method: The human immortalised keratinocytes HaCaT cells (AddexBio, San Diego, CA, USA) were cultured in Dulbecco’s modified Eagle’s medium containing 4 mM glutamine (DMEMg), supplemented with 10% heat-inactivated foetal bovine serum (FBS) and 0.1 mg/ml of penicillin and streptomycin, at 37 °C and 5% CO2, in 25 cm^2 or 75 cm^2 flasks[33].
The colorimetric MTT assay was carried out to measure cellular metabolic activity in terms of cell viability[33]^,[36]. Viable cells are able to reduce, by active mitochondrial dehydrogenases, the yellow salt MTT to purple formazan crystals. Briefly, 4 × 10^4 HaCaT cells, suspended in DMEMg supplemented with 2% FBS, were plated in each well of a 96-well microtiter plate. After overnight incubation, at 37 °C in a 5% CO2 atmosphere, keratinocytes were treated for 24 h with fresh serum-free medium containing the peptides 3B and C at concentrations ranging from 3.12 µM to 25 µM. Afterward, the culture medium was replaced with Hank’s buffer supplemented with 0.5 mg/ml MTT and the plate was incubated at 37 °C and 5% CO2 for 4 h. At the end, acidified isopropanol was employed to dissolve the formazan crystals. Cell viability was calculated, with respect to cells not treated with peptide, by absorbance measurements at 570 nm using a microplate reader (Infinite M200; Tecan, Salzburg, Austria)[33]. […]

KpCR1 = test: microbe, parasite or virus in culture; conditions: Klebsiella pneumoniae, read-out: Antimicrobial activity (MIC) KpCR1
Method: (§4) Clinical strains of P. aeruginosa (Pa1, Pa2 and Pa3), K. pneumoniae (KpCR1, KpCR2 and KpCR3), and S. aureus (Sa1, Sa2 and Sa3) were isolated from bloodstream or pulmonary infections, and belong to a collection of bacterial strains established between 2010 and 2018 at the Department of Molecular Medicine and Medical Biotechnologies (University Federico II, Naples) for research use.
as §2, §3

KpCR2 = test: microbe, parasite or virus in culture; conditions: Klebsiella pneumoniae, read-out: Antimicrobial activity (MIC) KpCR2
Method: as §4, §2, §3

KpCR3 = test: microbe, parasite or virus in culture; conditions: Klebsiella pneumoniae, read-out: Antimicrobial activity (MIC) KpCR3
Method: as §4, §2, §3

Pa1 = test: microbe, parasite or virus in culture; conditions: Pseudomonas aeruginosa, PA1, read-out: Antimicrobial activity (MIC) Pa1
Method: as §4, §2, §3

Pa2 = test: microbe, parasite or virus in culture; conditions: Pseudomonas aeruginosa, read-out: Antimicrobial activity (MIC) Pa2
Method: as §4, §2, §3

Pa3 = test: microbe, parasite or virus in culture; conditions: Pseudomonas aeruginosa, read-out: Antimicrobial activity (MIC) Pa3
Method: as §4, §2, §3

Sa1 = test: microbe, parasite or virus in culture; conditions: Staphylococcus aureus, MRSA, read-out: Antimicrobial activity (MIC) Sa1
Method: as §4, §2, §3

Sa2 = test: microbe, parasite or virus in culture; conditions: Staphylococcus aureus, MRSA, read-out: Antimicrobial activity (MIC) Sa2
Method: as §4, §2, §3

Sa3 = test: microbe, parasite or virus in culture; conditions: Staphylococcus aureus, MRSA, read-out: Antimicrobial activity (MIC) Sa3
Method: as §4, §2, §3

Structure (SMILES)	Antimicrobial activity (MIC) P. aeruginosa ATCC 27853 (P. aeruginosa ATCC 27853)	Antimicrobial activity (MIC) K. pneumoniae ATCC BAA-1705 [1]	Antimicrobial activity (MIC) S. aureus ATCC 25923 (S. aureus ATCC 25923)	CAC (critical aggregation concentration) [2]	membrane leakage ability (in words) (ANTS/DPX leakage assay)	haemolytic potency (sheep red blood cells)	reduction in cell viability (HaCaT cells)	MIC (P. aeruginosa ATCC 27853)	MIC [1]	MIC (S. aureus ATCC 25923)	MIC (KpCR1)	MIC (KpCR2)	MIC (KpCR3)	MIC (Pa1)	MIC (Pa2)	MIC (Pa3)	MIC (Sa1)	MIC (Sa2)	MIC (Sa3)
CCCCC(=O)N[C@@H](Cc1ccccc1)C(=O)N[C@H](C(=O)N1CCC[C@H]1C(=O)N[C@@H](Cc1c[nH]c2ccccc12)C(=O)N[C@@H](Cc1ccccc1)C(=O)N[C@@H](CO)C(=O)N[C@@H](CCCCN)C(=O)N[C@@H](Cc1ccccc1)C(=O)N[C@H](CC(C)C)C(=O)N[C@H](CCCCN)C(=O)N[C@@H](CCCNC(=N)N)C(=O)N[C@H](C(=O)N[C@@H](CC(C)C)C(N)=O)[C@@H](C)CC)C(C)C [Compound 2B, CH3(CH2)3CO-Phe-Val-Pro-Trp-Phe-Ser-Lys-Phe-DLeu-DLys-Arg-Ile-Leu-NH2] (Pentanoyl-FVPWFSKF[dL][dK]RIL-NH2)	50 µM	50 µM	12.5 µM	20.9 µM	highest leakage ability														
CCCCCCC(=O)N[C@@H](Cc1ccccc1)C(=O)N[C@H](C(=O)N1CCC[C@H]1C(=O)N[C@@H](Cc1c[nH]c2ccccc12)C(=O)N[C@@H](Cc1ccccc1)C(=O)N[C@@H](CO)C(=O)N[C@@H](CCCCN)C(=O)N[C@@H](Cc1ccccc1)C(=O)N[C@H](CC(C)C)C(=O)N[C@H](CCCCN)C(=O)N[C@@H](CCCNC(=N)N)C(=O)N[C@H](C(=O)N[C@@H](CC(C)C)C(N)=O)[C@@H](C)CC)C(C)C [Compound 3B, CH3(CH2)5CO-Phe-Val-Pro-Trp-Phe-Ser-Lys-Phe-DLeu-DLys-Arg-Ile-Leu-NH2] (Heptanoyl-FVPWFSKF[dL][dK]RIL-NH2)	25 µM	50 µM	3.12 µM	9.33 µM	highest leakage ability	over 50%	about 50%												
C[C@@H](O)[C@H]1C(=O)N2C(C(=O)O)=C(SCCN=CN)C[C@H]12 [Imipenem]								4 µg/mL (≈ 13.4 µM)	> 8 µg/mL	0.5 µg/mL (≈ 1.67 µM)	> 8 µg/mL	> 8 µg/mL	> 8 µg/mL	> 4 µg/mL	> 4 µg/mL	> 4 µg/mL	8 µg/mL (≈ 26.7 µM)	> 8 µg/mL	> 8 µg/mL
NC[C@H]1O[C@H](O[C@H]2[C@H](O)[C@@H](O[C@H]3O[C@H](CO)[C@@H](O)[C@H](N)[C@H]3O)[C@H](N)C[C@@H]2N)[C@H](N)C[C@@H]1O [Tobramycin]								4 µg/mL (≈ 8.56 µM)	> 4 µg/mL	1 µg/mL (≈ 2.14 µM)	2 µg/mL (≈ 4.28 µM)	2 µg/mL (≈ 4.28 µM)	> 4 µg/mL	4 µg/mL (≈ 8.56 µM)	4 µg/mL (≈ 8.56 µM)	4 µg/mL (≈ 8.56 µM)	1 µg/mL (≈ 2.14 µM)	< 1 µg/mL	1 µg/mL (≈ 2.14 µM)
